# Results reported in patent US9526796B2, “Peptide-based in vivo siRNA delivery system” (priority 2010, dated 2016).
# Non-standard residues stand in square brackets, D forms with d. No end group written: not given here. Nle = CCCC[C@H](N)C(=O)O
# System: ApoB
# Assay: Knockdown of endogenous serum ApoB in mice after co-injection of masked melittin delivery peptide and ApoB siRNA-cholesterol conjugate
# Type: in vivo
# Protocol: RNAi polynucleotide conjugates and masked melittin peptides were synthesized as described above. Six to eight week old mice (strain C57BL/6 or ICR, ˜18-20 g each) were obtained from Harlan Sprague Dawley (Indianapolis Ind.). Mice were housed at least 2 days prior to injection. Feeding was performed ad libitum with Harlan Teklad Rodent Diet (Harlan, Madison Wis.). Mice were injected with 0.2 mL solution of delivery peptide and 0.2 mL siRNA conjugates into the tail vein. For simultaneous injection of delivery peptide and siRNA, the siRNA-conjugate was added to modified peptide prior to injection and the entire amount was injected. The composition was soluble and nonaggregating in physiological conditions. Solutions were injected by infusion into the tail vein.
# Mice were fasted for 4 h (16 h for rats) before serum collection by submandibular bleeding. For rats blood was collected from the jugular vein. Serum ApoB protein levels were determined by standard sandwich ELISA methods. Briefly, a polyclonal goat anti-mouse ApoB antibody and a rabbit anti-mouse ApoB antibody (Biodesign International) were used as capture and detection antibodies respectively. An HRP-conjugated goat anti-rabbit IgG antibody (Sigma) was applied afterwards to bind the ApoB/antibody complex. Absorbance of tetramethyl-benzidine (TMB, Sigma) colorimetric development was then measured by a Tecan Safire2 (Austria, Europe) microplate reader at 450 nm.
# Melittin was reversibly modified with CDM-NAG as described above. The indicated amount of melittin was then co-injected with the 200 μg ApoB siRNA-cholesterol conjugate. Effect on ApoB levels were determined as described above.
# Melittin was reversibly modified with CDM-NAG as described above. The indicated amount of melittin was then co-injected with 50 μg ApoB siRNA-cholesterol conjugate. Effect on ApoB levels were determined as described above.
# Melittin was reversibly modified with CDM-NAG (5×) as described above. The indicated amount of melittin was then co-injected with the indicated amount of ApoB siRNA-cholesterol conjugate. Effect on ApoB levels were determined as described above.
# Melittin was reversibly modified with the indicated amount of CDM-NAG as described above. 50 μg melittin was then co-injected with the 100 μg ApoB siRNA-cholesterol conjugate. Effect on ApoB levels were determined as described above.
# Melittin peptides having the indicated sequence were reversibly modified with CDM-NAG (5×) as described above. The indicated amount of melittin was then co-injected with the indicated amount of ApoB siRNA-cholesterol conjugate. Effect on ApoB levels were determined as described above.
# Melittin peptides containing the indicated PEG amino terminal modifications were synthesized as described above. The PEG amino terminal modified melittin peptides were then reversibly modified with 5×CDM-NAG as described above. The indicated amount of Melittin was then co-injected with the 100-200 μg ApoB siRNA-cholesterol conjugate. Effect on ApoB levels were determined as described above. Addition of PEG less than 5 kDa in size decreased toxicity of the melittin peptides.
# [1] = CDM-NAG (5×), 100 μg peptide per mouse, 100 μg siRNA per mouse
# [2] = CDM-NAG (5×), 400 μg peptide per mouse, 100 μg siRNA per mouse
# [3] = CDM-NAG (5×), 100 μg peptide per mouse, 50 μg siRNA per mouse
# [4] = CDM-NAG (5×), 200 μg peptide per mouse, 200 μg siRNA per mouse
# [5] = CDM-NAG (5×), 80 μg peptide per mouse, 100 μg siRNA per mouse
substance,measurement,setting,value
"G1L, I2V, I5V, I17V, I20V (Seq ID 45): melittin peptide derivative (LVGAVLKVLATGLPTLVSWVKNKRKQ; melittin-like peptide derive from Apis florea)",percent knockdown,[1],24%
"G1L, K7H (Seq ID 20): melittin peptide derivative (LIGAILHVLATGLPTLISWIKNKRKQ; melittin-like peptide derive from Apis florea)",percent knockdown,[1],97%
"G1L, K7R (Seq ID 19): melittin peptide derivative (LIGAILRVLATGLPTLISWIKNKRKQ; melittin-like peptide derive from Apis florea)",percent knockdown,[1],92%
"G1L, K7S (Seq ID 18): melittin peptide derivative (LIGAILSVLATGLPTLISWIKNKRKQ; melittin-like peptide derive from Apis florea)",percent knockdown,[1],89%
"G1L, K21A (Seq ID 28): melittin peptide derivative (YIGAILKVLATGLPTLISWIANKRKQ; melittin-like peptide derive from Apis florea)",percent knockdown,[1],95%
"G1L, L5V, A10T, T15A Mel (1-23) (Seq ID 72): melittin peptide derivative",percent knockdown,[2],69%
"G1L, L5V, A10T, T15A, N22G, K23E dMel (1-23) (Seq ID 73): melittin peptide derivative",percent knockdown,[2],92%
"G1L, Mel-KKKKK (Seq ID 67): melittin peptide derivative (LIGAILKVLATGLPTLISWIKNKRKQKKKKK; C-terminal KKKKK extension; melittin-like peptide derive from Apis florea)",percent knockdown,[2],96%
"G1L, R24A (Seq ID 30): melittin peptide derivative (LIGAILKVLATGLPTLISWIKNKAKQ; melittin-like peptide derive from Apis florea)",percent knockdown,[1],87%
"G1L, S18C (Seq ID 25): melittin peptide derivative (LIGAILKVLATGLPTLICWIKNKRKQ; melittin-like peptide derive from Apis florea)",percent knockdown,[1],93%
"G1L, T11C dMel (Seq ID 21): melittin peptide derivative ([dL][dI]G[dA][dI][dL][dK][dV][dL][dA][dC]G[dL][dP][dT][dL][dI][dS][dW][dI][dK][dN][dK][dR][dK][dQ])",percent knockdown,[3],81%
"G1L, T11C, S18C dMel (Seq ID 38): melittin peptide derivative ([dL][dI]G[dA][dI][dL][dK][dV][dL][dA][dC]G[dL][dP][dT][dL][dI][dC][dW][dI][dK][dN][dK][dR][dK][dQ]; cysteine pairing not given here)",percent knockdown,[1],88%
"G1L, T15C dMel (Seq ID 24): melittin peptide derivative ([dL][dI]G[dA][dI][dL][dK][dV][dL][dA][dT]G[dL][dP][dC][dL][dI][dS][dW][dI][dK][dN][dK][dR][dK][dQ])",percent knockdown,[1],95%
G1Nle (Seq ID 8): melittin peptide derivative ([Nle]IGAILKVLATGLPTLISWIKNKRKQ),percent knockdown,[1],96%
G1Nle Mel-C (Seq ID 64): melittin peptide derivative ([Nle]IGAILKVLATGLPTLISWIKNKRKQC),percent knockdown,"CDM-NAG (5×), 400 μg peptide per mouse, 50 μg siRNA per mouse",89%
G1V (Seq ID 9): melittin peptide derivative (VIGAILKVLATGLPTLISWIKNKRKQ; melittin-like peptide derive from Apis florea),percent knockdown,[1],91%
G1W (Seq ID 10): melittin peptide derivative (WIGAILKVLATGLPTLISWIKNKRKQ; melittin-like peptide derive from Apis florea),percent knockdown,[4],96%
G1Y Mel-PLGIAGQC (Seq ID 66): melittin peptide derivative (YIGAILKVLATGLPTLISWIKNKRKQPLGIAGQC; C-terminal PLGIAGQC extension; melittin-like peptide derive from Apis florea),percent knockdown,[1],79%
G1Y dMel (Seq ID 11): G1Y melittin peptide having D-form amino acids ([dY][dI]G[dA][dI][dL][dK][dV][dL][dA][dT]G[dL][dP][dT][dL][dI][dS][dW][dI][dK][dN][dK][dR][dK][dQ]),percent knockdown,[3],95%
G1Y dMel-GFKGC (Seq ID 68): melittin peptide derivative ([dY][dI]G[dA][dI][dL][dK][dV][dL][dA][dT]G[dL][dP][dT][dL][dI][dS][dW][dI][dK][dN][dK][dR][dK][dQ]GFKGC),percent knockdown,[2],96%
"G1Y, K7A (Seq ID 17): melittin peptide derivative (YIGAILAVLATGLPTLISWIKNKRKQ; melittin-like peptide derive from Apis florea)",percent knockdown,[2],83%
"G1Y, K7A, K21A (Seq ID 35): melittin peptide derivative (YIGAILAVLATGLPTLISWIANKRKQ; melittin-like peptide derive from Apis florea)",percent knockdown,[1],14%
"G1Y, K7N (Seq ID 16): melittin peptide derivative (YIGAILNVLATGLPTLISWIKNKRKQ; melittin-like peptide derive from Apis florea)",percent knockdown,[5],32%
"G1Y, K23A (Seq ID 29): melittin peptide derivative (YIGAILKVLATGLPTLISWIKNARKQ; melittin-like peptide derive from Apis florea)",percent knockdown,[1],42%
"G1Y, K25A (Seq ID 31): melittin peptide derivative (YIGAILKVLATGLPTLISWIKNKRAQ; melittin-like peptide derive from Apis florea)",percent knockdown,[1],77%
"G1Y, Q26C (Seq ID 32): melittin peptide derivative (YIGAILKVLATGLPTLISWIKNKRKC; melittin-like peptide derive from Apis florea)",percent knockdown,[1],93%
G1Y-Mel-NH2 (Seq ID 110): melittin peptide derivative (YIGAILKVLATGLPTLISWIKNKRKQ-NH2),percent knockdown,[4],94%
"G1dI (D form Ile at 1^st position, Seq ID 6): melittin peptide derivative ([dI]IGAILKVLATGLPTLISWIKNKRKQ)",percent knockdown,"CDM-NAG (5×), 50 μg peptide per mouse, 100 μg siRNA per mouse",34%
G12L (Seq ID 13): melittin peptide derivative (GIGAILKVLATLLPTLISWIKNKRKQ; melittin-like peptide derive from Apis florea),percent knockdown,[5],58%
G12W (Seq ID 14): melittin peptide derivative (GIGAILKVLATWLPTLISWIKNKRKQ; melittin-like peptide derive from Apis florea),percent knockdown,[5],51%
"Leu-Melittin (Seq ID 7) L form: G1L melittin peptide, L form amino acids (LIGAILKVLATGLPTLISWIKNKRKQ; melittin-like peptide derive from Apis florea)",% knockdown,"1× CDM-NAG, 100 μg siRNA, 50 μg peptide",74%
same,% knockdown,"2× CDM-NAG, 100 μg siRNA, 50 μg peptide",88%
same,% knockdown,"5× CDM-NAG, 50 μg siRNA, 25 μg peptide",15%
same,% knockdown,"5× CDM-NAG, 50 μg siRNA, 50 μg peptide",70%
same,% knockdown,"5× CDM-NAG, 50 μg siRNA, 100 μg peptide",90%
same,% knockdown,"5× CDM-NAG, 50 μg siRNA, 200 μg peptide",90%
same,% knockdown,"5× CDM-NAG, 50 μg siRNA, 400 μg peptide",90%
same,% knockdown,"5× CDM-NAG, 100 μg siRNA, 50 μg peptide",82%
same,percent knockdown,"5× CDM-NAG, no PEG modification, 25 μg peptide, 100 μg siRNA",0%
same,percent knockdown,"5× CDM-NAG, no PEG modification, 50 μg peptide, 100 μg siRNA",72%
same,percent knockdown,"5× CDM-NAG, no PEG modification, 100 μg peptide, 100 μg siRNA",94%
